Series [1] relates to COS-7 cells. The series is described as follows: Toxicity study, residual protein content of COS-7 cells.
The subject of series [2] is COS-7 cells. The series is described as follows: Transfection of COS-7 cells (CAT-assay). It is filed as cell-based.

In the case of `CCCCCCCCC=CCCCCCCCCC(CCCCCCCCC=CCCCCCCCC)c1cc[n+](C)cc1.[Cl-]` (stereo not drawn) [SAINT-2, 1-Methyl-4-(19-cis,cis-heptatritiaconta-9,28-dienyl)pyridinium Chloride], in series [1], the “lipid concentration from which decrease of protein content was observed” value was found to be 90 µM and the “toxicity compared with DOTMA-DOPE” value is on record as “clearly less toxic”. The “residual protein content after decrease” value in series [1] (decrease from 2 mg/ml) amounted to 1.75 mg/mL. For the same molecule, the “transfection efficiency with respect to DOTMA/DOPE vesicles” value in series [2] (COS-7 cells, FIG. 1) is on record as “eight”. In series [2] (dependent on the cell type), the “transfection efficiency with respect to Lipofectine” value is reported as “at least eight”.

Source of the values: US6726894B1, “Transport vehicles for macromolecules” (priority 1995, dated 2004).
